Data taken from publication PMC11062894, “Protein-based bandpass filters for controlling cellular signaling with chemical inputs” (Nature Chemical Biology, 2023).
Values joined by “and” are separate entries in the source; they are usually repeats but may differ in a detail not shown here. Equal entries are not always repeated.

Legend:
[1] = biological target: GEMS with the dual-drug-controlled (A-1155463, venetoclax) switch (Bcl2 and BclXL–LD3) in HEK293T cells (Homo sapiens, UniProt P10415); test: GEMS SEAP reporter assay, dual-drug-controlled (A-1155463, venetoclax) switch; type: cell-based; settings: for SEAP (U/L): Figure 2c, OFF-phase
From the text: In the first step, we sought to construct a dual-drug-controlled switch to test whether the ON and OFF switching processes can be combined in our receptor architecture. We used Bcl2 and BclXL as the orthogonal drug receptors, which interact with the LD3 protein and respond to their own specific inhibitors. In such a setting, the dual-drug-controlled switch will turn ON in response to one drug and OFF in response to the other, thus mimicking bandpass filtering behavior (Supplementary Fig. 1d). […] To test the switch behavior, we employed the generalizable extracellular molecule sensor (GEMS) platform, which senses extracellular molecules and thus regulates cell surface signaling pathways (Fig. 2a). This receptor platform is based on a mutated EpoR extracellular and transmembrane domain fused to an IL-6RB intracellular domain. Dimerization of EpoR extracellular domains is controlled by N-terminally fused inducible dimerization domains, which drive IL-6RB activation and STAT3 signaling. The Bcl2 and BclXL–LD3 complexes were fused to the extracellular EpoR domains. […] The dimerization of Bcl2 and LD3 causes EpoR extracellular domain dimerization and triggers JAK/STAT3 signaling. Active STAT3 drives the expression of a reporter protein (secreted alkaline phosphatase (SEAP)) controlled by a STAT3-dependent promoter.
(§1) HEK293T cells were seeded in a 96-well plate 24 h before transfection. The transfection mix in each well consisted of 3 ng of constitutive human CMV promoter driven mammalian STAT3 expression vector (PhCMV-STAT3-pA), 30 ng of STAT3-induced reporter expression (OStat3-PhCMVmin-SEAP-pA) and 50 ng of expression vectors for each GEMS receptor chain (PSV40-IgK-(drughigh receptor)-EpoRm-IL-6RBm-pA and PSV40-IgK-(druglow receptor-GGGGSX3-LD3)-EpoRm-IL-6RBm-pA). For the specific drughigh receptor and druglow receptor used in the different cellular assays, they are indicated as wild type or with mutations. Then, plasmid DNA was mixed with 50 μl opti-MEM (Thermo Fisher) and 600 ng of polyethyleneimine (Polysciences, catalog no. 24765-1). For drug treatment experiments, drugs were added 12 h post-transfection and incubated with cells for 24 h before the SEAP reporter detection assay.
(§2) SEAP activity (U l^−1) in cell culture supernatants was quantified by kinetic measurements at 405 nm (1 minute per measurement for 30 cycles) of absorbance increase due to phosphatase-mediated hydrolysis of para-nitrophenyl phosphate (pNPP).
Binding affinities of SPR drug competition assays were calculated using three-parameter nonlinear regression in GraphPad Prism (v.8.3.0). Representative data of cell assays are presented as individual values and mean values (bars). n = 3 refers to biological replicates. All IC50 or EC50 values of cell assays reported were calculated using four-parameter nonlinear regression ± s.d. Bandpass features of cutoff concentrations and Bandwidth90% were estimated based on the curve fitted using bell-shaped curve nonlinear regression in GraphPad Prism (v.8.3.0).

[2] = biological target: Bcl2–LD3 interaction (Homo sapiens, UniProt P10415); test: SPR drug competition assay, Bcl2–LD3; type: binding; settings: Bcl2, Supp Fig 2d
Procedure: Drug IC50 values for disrupting heterodimers were measured on a Biacore 8K device. A 5 µM portion of analyte was mixed with 10 µM of BclXL or Bcl2 inhibitors according to the analyte. The mixtures of analyte and drug were injected onto the LD3 immobilized channel.
(§3) Binding affinities of SPR drug competition assays were calculated using three-parameter nonlinear regression in GraphPad Prism (v.8.3.0). Representative data of cell assays are presented as individual values and mean values (bars). n = 3 refers to biological replicates. All IC50 or EC50 values of cell assays reported were calculated using four-parameter nonlinear regression ± s.d. Bandpass features of cutoff concentrations and Bandwidth90% were estimated based on the curve fitted using bell-shaped curve nonlinear regression in GraphPad Prism (v.8.3.0). […]
This assay is designed to test if the drug of interest can specifically disrupt the
interaction between LD3 and BclXL/Bcl2. The drug-receptors (Bcl2, BclXL) are immobilized on the
different channels of the sensor chip, then the binding sites are saturated with LD3. […]

[3] = biological target: BclXL–LD3 interaction (Homo sapiens, UniProt Q07817); test: SPR drug competition assay, BclXL–LD3; type: binding; settings: for Normalization of Response units / Response units: BclXL, Supp Fig 2d
[4] = biological target: GEMS with the dual-drug-controlled (venetoclax, A-1155463) switch (BclXL and Bcl2–LD3) in HEK293T cells (Homo sapiens, UniProt P10415); test: GEMS SEAP reporter assay, dual-drug-controlled (venetoclax, A-1155463) switch; type: cell-based
Procedure: as §1, §2, §3

[5] = test system: Bcl2; settings: cited from earlier work

Sequence of Bcl2–LD3 interaction (P10415 1-207 limits assumed): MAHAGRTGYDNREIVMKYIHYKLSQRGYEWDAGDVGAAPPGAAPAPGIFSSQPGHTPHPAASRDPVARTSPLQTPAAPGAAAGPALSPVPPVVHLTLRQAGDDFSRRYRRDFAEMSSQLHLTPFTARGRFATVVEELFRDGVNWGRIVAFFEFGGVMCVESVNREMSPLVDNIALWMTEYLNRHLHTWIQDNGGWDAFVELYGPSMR
Sequence of GEMS with the dual-drug-controlled (A-1155463, venetoclax) switch (Bcl2 and BclXL–LD3) in HEK293T cells (Q07817 whole entry): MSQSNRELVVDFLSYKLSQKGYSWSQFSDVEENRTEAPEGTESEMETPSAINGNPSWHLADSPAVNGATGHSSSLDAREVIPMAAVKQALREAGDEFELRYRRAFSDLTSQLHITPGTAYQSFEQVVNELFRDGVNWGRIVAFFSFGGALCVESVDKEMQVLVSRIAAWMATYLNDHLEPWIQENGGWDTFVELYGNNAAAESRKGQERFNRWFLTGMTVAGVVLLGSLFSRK
Sequence of GEMS with the dual-drug-controlled (A-1155463, venetoclax) switch (Bcl2 and BclXL–LD3) in HEK293T cells (P10415 whole entry): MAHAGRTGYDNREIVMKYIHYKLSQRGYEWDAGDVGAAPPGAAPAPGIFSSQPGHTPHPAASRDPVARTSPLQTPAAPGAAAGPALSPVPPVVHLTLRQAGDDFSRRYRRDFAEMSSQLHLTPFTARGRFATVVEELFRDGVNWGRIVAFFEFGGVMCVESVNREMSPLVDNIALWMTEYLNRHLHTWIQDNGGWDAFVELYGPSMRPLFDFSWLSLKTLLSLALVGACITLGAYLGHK
Sequence of BclXL–LD3 interaction (Q07817 1-209 limits assumed): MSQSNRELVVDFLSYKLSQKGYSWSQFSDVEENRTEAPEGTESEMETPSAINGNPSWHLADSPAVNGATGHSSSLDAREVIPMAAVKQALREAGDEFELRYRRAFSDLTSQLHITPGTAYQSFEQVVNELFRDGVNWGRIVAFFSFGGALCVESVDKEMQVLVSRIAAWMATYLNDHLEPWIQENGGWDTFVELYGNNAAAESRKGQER
Sequence of GEMS with the dual-drug-controlled (venetoclax, A-1155463) switch (BclXL and Bcl2–LD3) in HEK293T cells (P10415 whole entry): as the sequence (P10415 whole entry) above
Sequence of GEMS with the dual-drug-controlled (venetoclax, A-1155463) switch (BclXL and Bcl2–LD3) in HEK293T cells (Q07817 whole entry, further chain): as the sequence (Q07817 whole entry) above

CC1(C)CCC(CN2CCN(c3ccc(C(=O)NS(=O)(=O)c4ccc(NCC5CCOCC5)c([N+](=O)[O-])c4)c(Oc4cnc5[nH]ccc5c4)c3)CC2)=C(c2ccc(Cl)cc2)C1 [Venetoclax]
SEAP (U/L) ([1]; Independent repeat, Venetoclax 0.001 nM): 294.62 U/L and 313.4 U/L and 319.588 U/L | SEAP (U/L) ([1]; Independent repeat, Venetoclax 0.01 nM): 267.156 U/L and 307.848 U/L and 300.966 U/L | SEAP (U/L) ([1]; Independent repeat, Venetoclax 0.1 nM): 225.991 U/L and 258.444 U/L and 342.296 U/L | SEAP (U/L) ([1]; Independent repeat, Venetoclax 1 nM): 259.474 U/L and 200.825 U/L and 300.367 U/L | SEAP (U/L) ([1]; Independent repeat, Venetoclax 10 nM): 304.021 U/L and 256.34 U/L and 345.499 U/L | SEAP (U/L) ([1]; Independent repeat, Venetoclax 31.6 nM): 220.194 U/L and 208.431 U/L and 268.11 U/L | SEAP (U/L) ([1]; Independent repeat, Venetoclax 100 nM): 193.21 U/L and 194.937 U/L and 240.35 U/L | SEAP (U/L) ([1]; Independent repeat, Venetoclax 316 nM): 87.2098 U/L and 106.113 U/L and 133.634 U/L | SEAP (U/L) ([1]; Independent repeat, Venetoclax 1000 nM): 44.9721 U/L and 57.2365 U/L and 51.9722 U/L | SEAP (U/L) ([1]; Representative, Venetoclax 0.001 nM): 75.3746 U/L and 89.0712 U/L and 99.0049 U/L | SEAP (U/L) ([1]; Representative, Venetoclax 0.01 nM): 85.1657 U/L and 70.1122 U/L and 89.4923 U/L | SEAP (U/L) ([1]; Representative, Venetoclax 0.1 nM): 81.9771 U/L and 80.9297 U/L and 78.2538 U/L | SEAP (U/L) ([1]; Representative, Venetoclax 1 nM): 69.1909 U/L and 65.9454 U/L and 68.5076 U/L | SEAP (U/L) ([1]; Representative, Venetoclax 10 nM): 45.3899 U/L and 45.448 U/L and 63.5072 U/L | SEAP (U/L) ([1]; Representative, Venetoclax 31.6 nM): 23.8212 U/L and 28.0484 U/L and 21.6764 U/L | SEAP (U/L) ([1]; Representative, Venetoclax 100 nM): 11.359 U/L and 10.3713 U/L and 12.1034 U/L | SEAP (U/L) ([1]; Representative, Venetoclax 316 nM): 9.4797 U/L and 7.067 U/L and 8.943 U/L | SEAP (U/L) ([1]; Representative, Venetoclax 1000 nM): 8.365 U/L and 6.996 U/L and 8.215 U/L | shut-down of reporter gene expression ([1]; adding 1 µM venetoclax to 100 nM A-1155463): effectively shut down | Normalization of Response units ([2]; V 0.01): 100.745 | Response units ([2]; V 0.01): 7.1398 | Normalization of Response units ([2]; V 0.1): 100.312 | Response units ([2]; V 0.1): 7.1091 | Normalization of Response units ([2]; V 1): 96.9409 | Response units ([2]; V 1): 6.8702 | Normalization of Response units ([2]; V 10): 93.6659 | Response units ([2]; V 10): 6.6381 | Normalization of Response units ([2]; V 100): 74.5943 | Response units ([2]; V 100): 5.2865 | Normalization of Response units ([2]; V 1000): 57.566 | Response units ([2]; V 1000): 4.0797 | Normalization of Response units ([2]; V 10000): 38.8006 | Response units ([2]; V 10000): 2.7498 | Normalization of Response units ([3]; V 0.01): 100.685 | Response units ([3]; V 0.01): 94.0092 | Normalization of Response units ([3]; V 0.1): 99.7556 | Response units ([3]; V 0.1): 93.1418 | Normalization of Response units ([3]; V 1): 98.8448 | Response units ([3]; V 1): 92.2914 | Normalization of Response units ([3]; V 10): 97.5083 | Response units ([3]; V 10): 91.0435 | Normalization of Response units ([3]; V 100): 89.9423 | Response units ([3]; V 100): 83.9791 | Normalization of Response units ([3]; V 1000): 81.529 | Response units ([3]; V 1000): 76.1236 | Normalization of Response units ([3]; V 10000): 74.8321 | Response units ([3]; V 10000): 69.8707 | effect on the BclXL–LD3 interaction ([3]; SPR drug competition): not affecting | increase in the ON phase [4]: close to tenfold | affinity for Bcl2 stronger than for BclXL [5]: 500 fold
